Assay results published in patent publication US8765767B2, “Positive allosteric modulators of mGluR2” (Bristol-Myers Squibb Company, priority 2012, dated 2014).

system: mGluR2/3; experiment: not given; details: GAD patients; cited from earlier work

Structure (SMILES) | therapeutic effect for anxiety
C[C@H](N)C(=O)N[C@@]1(C(=O)O)CC[C@H]2[C@H](C(=O)O)[C@H]21 [LY-544344] | therapeutic effects

system: mGluR2/3; experiment: not given; details: schizophrenia patients; cited from earlier work

Structure (SMILES) | relief of positive and negative symptoms
CSCC[C@H](N)C(=O)N[C@@]1(C(=O)O)CS(=O)(=O)[C@H]2[C@H](C(=O)O)[C@H]21 [LY-2140023] | relief of positive and negative symptoms

biological target: T1, human mGluR2 (Homo sapiens, UniProt Q14416); experiment: mGluR2 cAMP assay (HTRF) in HEK293 cells clonally expressing human mGluR2; format: cell-based; details: HEK293 cells expressing human mGluR2, 1 μM forskolin, 1 μM LY-341495, 30 min
T1 construct: expressed in transfected cells; host or cells: HEK293 clonal line
T1 sequence (Q14416 19-872): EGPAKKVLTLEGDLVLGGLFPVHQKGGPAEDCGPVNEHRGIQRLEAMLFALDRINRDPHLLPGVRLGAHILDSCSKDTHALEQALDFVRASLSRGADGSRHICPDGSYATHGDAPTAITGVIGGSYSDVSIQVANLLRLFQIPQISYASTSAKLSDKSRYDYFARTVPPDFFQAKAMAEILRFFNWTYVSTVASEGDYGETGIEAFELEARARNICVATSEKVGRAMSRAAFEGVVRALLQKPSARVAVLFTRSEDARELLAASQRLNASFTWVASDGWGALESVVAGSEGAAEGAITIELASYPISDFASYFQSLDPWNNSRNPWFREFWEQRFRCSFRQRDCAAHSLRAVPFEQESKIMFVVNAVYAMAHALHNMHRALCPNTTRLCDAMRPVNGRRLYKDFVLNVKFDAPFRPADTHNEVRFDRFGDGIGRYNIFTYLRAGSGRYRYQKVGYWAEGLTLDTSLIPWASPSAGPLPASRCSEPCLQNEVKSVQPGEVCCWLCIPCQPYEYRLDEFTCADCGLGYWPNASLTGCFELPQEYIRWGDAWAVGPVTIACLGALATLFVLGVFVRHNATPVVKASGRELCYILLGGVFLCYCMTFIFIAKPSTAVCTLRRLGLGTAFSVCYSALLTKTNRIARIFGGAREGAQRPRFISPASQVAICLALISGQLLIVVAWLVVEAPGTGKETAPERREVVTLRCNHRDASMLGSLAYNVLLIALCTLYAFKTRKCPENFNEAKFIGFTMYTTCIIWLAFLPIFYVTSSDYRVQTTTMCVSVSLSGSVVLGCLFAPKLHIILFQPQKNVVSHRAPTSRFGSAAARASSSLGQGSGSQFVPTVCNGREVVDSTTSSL
Protocol: • Cell Culture. Clonally expressed human mGluR2 in HEK293 background was glutamate starved overnight in media without glutamine (GIBCO MEM 12360), containing 10% FBS, 1% penicillin streptomycin. • cAMP Measurement. On the day of the assay, media was removed, cells washed with PBS, cells harvested and pelleted by centrifugation. Cell pellets were resuspended in stimulation buffer without forskolin and counted. A solution of 1.25×10^6 cells/mL was prepared and dispensed to plates using a Combi liquid handler (Thermo). A standard curve was created using a top concentration of cAMP of 1 μM in the stimulation buffer, 1:3 dilutions over 14 points in the absence of cells. Plates were read by time-resolved fluorescence at […] and a ratio was calculated via in house software, (665 nM/618 nM)*10^4. In house software converted the fluorescence value ratios to units of cAMP concentration, which is then used to calculate % inhibition for each test compound. • MGluR2 cAMP Assay Materials and Methods. Compounds were added to white, standard volume 384 non-binding surface plates (Corning 3574). Cells were resuspended in stimulation buffer consisting of Hanks Balanced Salt Solution (14175-095) pH 7.0, 20 mM HEPES, 2.0 mM CaCl2, 5.0 mM MgCl2, and 1 mM IBMX (Sigma 15879), 1 μM forskolin, and 1 μM LY-341495 for 30 min. Buffer without forskolin was used as a negative control. Solutions of D2 and cryptate detection reagents from the CISBIO dynamic cAMP kit (62AM4PEJ) were diluted 1:40 in lysis buffer. Lysis buffer consisted of 50 mM Phosphate Buffer pH 7.0, 800 mM Potassium Fluoride, 0.2% BSA, and 1.0% Triton. Assay reaction was terminated by addition of detection reagents in lysis buffer. One hour later, plates were read on a PE Viewlux. Data was extracted, and concentration response curves generated by fitting the data to a standard 4 parameter logistic equation from which EC50 values were determined.

Structure (SMILES) | EC50
N#Cc1c(NCC2CC2c2ccccc2OC(F)(F)F)ccn2c(CC(F)(F)F)cnc12 (stereo not drawn) [Example 28, 3-(2,2,2-Trifluoroethyl)-7-(((2-(2-(trifluoromethoxy)phenyl)cyclopropyl)methyl)amino)imidazo[1,2-a]pyridine-8-carbonitrile] | 59 nM
COc1ccccc1C1CC1CNc1ccn2c(CC(F)(F)F)cnc2c1C#N (stereo not drawn) [Example 29, 7-(((2-(2-Methoxyphenyl)cyclopropyl)methyl)amino)-3-(2,2,2-trifluoroethyl)imidazo[1,2-a]pyridine-8-carbonitrile] | 81 nM
N#Cc1c(NCC2CC2c2ccc(F)cc2)ccn2c(CC(F)(F)F)cnc12 (stereo not drawn) [Example 30, 7-(((2-(4-Fluorophenyl)cyclopropyl)methyl)amino)-3-(2,2,2-trifluoroethyl)imidazo[1,2-a]pyridine-8-carbonitrile] | 108 nM
CN(C[C@@H]1C[C@H]1c1ccc(F)cc1)c1ccn2c(CC3CC3)nnc2c1C(F)(F)F [Example 40, 3-(Cyclopropylmethyl)-N-(((1R,2R)-2-(4-fluorophenyl)cyclopropyl)methyl)-N-methyl-8-(trifluoromethyl)-[1,2,4]triazolo[4,3-a]pyridin-7-amine] | 7 nM

The next lines start with the values.

EC50 | Structure (SMILES)
4 nM | Fc1ccccc1[C@H]1C[C@@H]1CNc1ccn2c(CC3CC3)nnc2c1Cl [Example 37, 8-Chloro-3-(cyclopropylmethyl)-N-(((1S,2S)-2-(2-fluorophenyl)cyclopropyl)methyl)-[1,2,4]triazolo[4,3-a]pyridin-7-amine]
4 nM | Fc1ccccc1[C@@H]1C[C@H]1CNc1ccn2c(CC3CC3)nnc2c1Cl [Example 38, 8-Chloro-3-(cyclopropylmethyl)-N-(((1R,2R)-2-(2-fluorophenyl)cyclopropyl)methyl)-[1,2,4]triazolo[4,3-a]pyridin-7-amine]
3 nM | Clc1c(NC[C@H]2C[C@@H]2c2cccc3c2OCC3)ccn2c(CC3CC3)nnc12 [Example 35, 8-Chloro-3-(cyclopropylmethyl)-N-(((1S,2S)-2-(2,3-dihydrobenzofuran-7-yl)cyclopropyl)methyl)-[1,2,4]triazolo[4,3-a]pyridin-7-amine]
2 nM | Clc1c(NC[C@@H]2C[C@H]2c2cccc3c2OCC3)ccn2c(CC3CC3)nnc12 [Example 36, 8-Chloro-3-(cyclopropylmethyl)-N-(((1R,2R)-2-(2,3-dihydrobenzofuran-7-yl)cyclopropyl)methyl)-[1,2,4]triazolo[4,3-a]pyridin-7-amine]
2 nM | CN(C[C@H]1C[C@@H]1c1ccc(F)cc1)c1ccn2c(CC(F)(F)F)nnc2c1C(F)(F)F [Example 41, N-(((1S,2S)-2-(4-fluorophenyl)cyclopropyl)methyl)-N-methyl-3-(2,2,2-trifluoroethyl)-8-(trifluoromethyl)-[1,2,4]triazolo[4,3-a]pyridin-7-amine]
2 nM | Fc1ccc(F)c([C@H]2C[C@@H]2CNc2ccn3c(CC4CC4)nnc3c2Cl)c1 [Example 43, 8-Chloro-3-(cyclopropylmethyl)-N-(((1S,2S)-2-(2,5-difluorophenyl)cyclopropyl)methyl)-[1,2,4]triazolo[4,3-a]pyridin-7-amine]
2 nM | Fc1ccc(F)c([C@@H]2C[C@H]2CNc2ccn3c(CC4CC4)nnc3c2Cl)c1 [Example 44, 8-Chloro-3-(cyclopropylmethyl)-N-(((1R,2R)-2-(2,5-difluorophenyl)cyclopropyl)methyl)-[1,2,4]triazolo[4,3-a]pyridin-7-amine]
1 nM | COc1cccc(F)c1[C@H]1C[C@@H]1CNc1ccn2c(CC3CC3)nnc2c1Cl [Example 33, 8-Chloro-3-(cyclopropylmethyl)-N-(((1S,2S)-2-(2-fluoro-6-methoxyphenyl)cyclopropyl)methyl)-[1,2,4]triazolo[4,3-a]pyridin-7-amine]
1 nM | COc1cccc(F)c1[C@@H]1C[C@H]1CNc1ccn2c(CC3CC3)nnc2c1Cl [Example 34, 8-Chloro-3-(cyclopropylmethyl)-N-(((1R,2R)-2-(2-fluoro-6-methoxyphenyl)cyclopropyl)methyl)-[1,2,4]triazolo[4,3-a]pyridin-7-amine]
1 nM | CN(C[C@H]1C[C@@H]1c1ccc(F)cc1)c1ccn2c(CC3CC3)nnc2c1C(F)(F)F [Example 39, 3-(Cyclopropylmethyl)-N-(((1S,2S)-2-(4-fluorophenyl)cyclopropyl)methyl)-N-methyl-8-(trifluoromethyl)-[1,2,4]triazolo[4,3-a]pyridin-7-amine]

system: mGluR2/3; experiment: not given; details: rats treated with PCP; cited from earlier work

Structure (SMILES) | behavioral effects of PCP (hyper-locomotion, working memory deficits) | brain glutamate levels
N[C@@]1(C(=O)O)CC[C@H]2[C@H](C(=O)O)[C@H]21 [LY-354740] | reversed the behavioral effects of PCP | lowered brain glutamate levels
